Assay results: patent publication US11819492B2, “Natural product derivatives for inhibiting cellular necroptosis, ferroptosis and oxytosis” (Institut National de la Sante et de la Recherche Medicale …, priority 2016, dated 2023)

Legend:
[1] = system: Murine hippocampal neuronal cell line HT22; test: L-glutamate-induced oxytosis in HT22 cells, MTS viability assay; type: cell-based; conditions: 10 mM L-glutamate, 24 hours, FIG. 14
Experimental: Murine hippocampal neuronal cell line HT22 was treated with 10 mM of (L)-glutamate (oxytosis initiator) or 1 μM erastin (ferroptosis initiator).
Cells were then incubated at 37° C., 5% CO2 for 24 hours before performing MTS viability assay. Cell viability was monitored using CellTiter 96® AQueous Non-Radioactive Cell Proliferation Assay (Promega, Fitchburg, WI, USA), based on the water-soluble tetrazolium compound MTS (3-[4,5-dimethylthiazol-2-yl]-5-[3-carboxymethoxy-phenyl]-2-[4-sulfophenyl]-2H-tetrazolium, inner salt) according to the manufacturers instructions.

[2] = system: Human retinal pigment epithelial cell line, ARPE-19; test: NaIO3-induced retinal cell death (cellular model of AMD), MTS viability assay; type: cell-based; conditions: subtoxic concentration (+/−20 μM), 10 mM NaIO3, 24 hours, P<0.001
Experimental: At it was previously shown (Hanus et al. Cell Death Discov. 2016, 2, 16054), NaIO3 is an oxidizing agent that induces necroptosis in retinal pigment epithelial cell line that can be inhibited by 200 μM of necrostatin-1. […] Human retinal pigment epithelial cell line, ARPE-19, was treated with 10 mM of NaIO3 as cellular model of age-related macular degeneration (AMD). […] Cells were then incubated at 37° C., 5% CO2 for 24 hours before performing MTS viability assay. Cell viability was monitored using CellTiter 96® AQueous Non-Radioactive Cell Proliferation Assay (Promega, Fitchburg, WI, USA), based on the water-soluble tetrazolium compound MTS (3-[4,5-dimethylthiazol-2-yl]-5-[3-carboxymethoxy-phenyl]-2-[4-sulfophenyl]-2H-tetrazolium, inner salt) according to the manufacturers instructions.

Q: For COc1cc(O)c2c(c1)OC(O)(c1ccc(OCc3ccccc3)cc1)CC2=O (centres unmarked) [compound 1], which “concentration that protects cells from death induced by L-glutamate” value [1] is on record?
A: The value was > 25 µM.

Q: What about the “protection from death induced by NaIO3” value [2] of the same molecule?
A: The value was “protects significantly”.
